System: hypertensive subjects
Assay: 24-hour ambulatory blood pressure monitoring (ABPM), incl. nighttime dip
Format: in vivo, human
Details: Part 1; for LSM Δ with Placebo, 24-hr DBP (ABPM, ANCOVA) / LSM Δ with Placebo, 24-hr Mean MAP (ABPM, ANCOVA) / LSM Δ with Placebo, 24-hr SBP (ABPM, ANCOVA) / LSM Δ with Placebo, Daytime Mean DBP (ABPM, ANCOVA) / LSM Δ with Placebo, Daytime Mean SBP (ABPM, ANCOVA) / LSM Δ with Placebo, Mean Central DBP (ABPM, ANCOVA) / LSM Δ with Placebo, Mean Central Mean BP (ABPM, ANCOVA) / LSM Δ with Placebo, Mean Central SBP (ABPM, ANCOVA) / LSM Δ with Placebo, Nighttime Mean DBP (ABPM, ANCOVA) / LSM Δ with Placebo, Nighttime Mean SBP (ABPM, ANCOVA): End of Treatment, FAS post-hoc
Protocol: Ambulatory blood pressure monitoring was accomplished with an ambulatory blood pressure monitoring device that consists of a blood pressure cuff worn on a subject's arm attached to a small recording device that is typically attached to the subject's belt or waistband.
The ABPM device is worn for 24 hours. Throughout that period, the device records the subject's blood pressure at regular intervals, during the subject's routine daily activities and while they are sleeping. The ABPM thus provides a complete record of the subject's blood pressure over a 24-hour period.
24-hour ABPM was measured in the clinic at baseline and Study Week 7. If, for any reason, the ABPM procedure was deemed a failure at the end of Study Week 7, it may have been repeated at Study Week 8 and therefore no imputation was employed regardless of use of rescue medications. Additionally, ABPM was also collected at the end of Study Week 4 in Part 2. If a repeat test was performed, it supersedes the original test results for that visit.
Specific derived variables based on ABPM measurements include mean 24-hour, mean Daytime, and mean Nighttime of SBP, DBP, and heart rate.
Change from baseline to Week 7 in 24-hour mean SBP (and DBP) based on ABPM will be analyzed using an ANCOVA with a term for treatment group and a baseline mean 24-hour value as a covariate.
The nighttime dip is defined as
100%×(mean daytime SBP−mean nighttime SBP)/mean daytime SBP
It is expressed as a percentage and is summarized by treatment group and visit using descriptive statistics. In addition, the number and percentage of subjects with nighttime dip in each of the dipper categories (Bloomfield & Park, 2015) is presented by treatment group and visit. The categories are: • (a) <10% • (b) 10-20% inclusive • (c) >20%
Secondary endpoints of this study were: • (a) Change in 24-hour ambulatory blood pressure monitoring (ABPM) parameters (systolic and diastolic) from baseline to the end of Study Week 7. • (b) Change in office-measured SBP from baseline to the end of Study Weeks 1, 2, 3, 4, 5, 6, and 7. • (c) Change in office-measured diastolic blood pressure (DBP) from baseline to the end of Study Weeks 1, 2, 3, 4, 5, 6, 7, and 8. • (d) Proportion of subjects who achieve office-measured BP of ≤130/80 mm Hg by the end of Study Week 8.

In the case of `CC(=O)N[C@H]1CC[C@H](NC(=O)CN2CCN(c3nncc(-c4ccc(C)cc4)n3)CC2)CC1` [Compound A HBr], the “LSM Δ with Placebo, 24-hr DBP (ABPM, ANCOVA)” value (12.5 mg BID) is reported as −4.24 mmHg, the “LSM Δ with Placebo, 24-hr Mean MAP (ABPM, ANCOVA)” value (12.5 mg BID) is reported as −4.58 mmHg and the “LSM Δ with Placebo, 24-hr SBP (ABPM, ANCOVA)” value (12.5 mg BID) is reported as −4.76 mmHg. For the same compound, the “LSM Δ with Placebo, Daytime Mean DBP (ABPM, ANCOVA)” value (12.5 mg BID) was −4.19 mmHg, the “LSM Δ with Placebo, Daytime Mean SBP (ABPM, ANCOVA)” value (12.5 mg BID) was −4.96 mmHg and the “LSM Δ with Placebo, Mean Central DBP (ABPM, ANCOVA)” value (12.5 mg BID) was −4.85 mmHg. The “LSM Δ with Placebo, Mean Central Mean BP (ABPM, ANCOVA)” value (12.5 mg BID) was −6.08 mmHg, the “LSM Δ with Placebo, Mean Central SBP (ABPM, ANCOVA)” value (12.5 mg BID) was −7.19 mmHg and the “LSM Δ with Placebo, Nighttime Mean DBP (ABPM, ANCOVA)” value (12.5 mg BID) was −3.92 mmHg. For the same compound, the “LSM Δ with Placebo, Nighttime Mean SBP (ABPM, ANCOVA)” value (12.5 mg BID) was −3.9 mmHg, the “24-hr Mean DBP (ABPM), Mean (SD)” value (12.5 mg BID, EoT, FAS) was 77.63 (11.03) mmHg and the “24-hr Mean MAP (ABPM), Mean (SD)” value (12.5 mg BID, EoT, FAS) was 105.41 (12.62) mmHg. For the same compound, the “24-hr Mean SBP (ABPM), Mean (SD)” value (12.5 mg BID, EoT, FAS) was 133.19 (14.86) mmHg, the “Daytime Mean DBP (ABPM), Mean (SD)” value (12.5 mg BID, EoT, FAS) was 79.69 (10.81) mmHg and the “Daytime Mean SBP (ABPM), Mean (SD)” value (12.5 mg BID, EoT, FAS) was 135.38 (14.97) mmHg. The “Nighttime Mean DBP (ABPM), Mean (SD)” value (12.5 mg BID, EoT, FAS) was 72.44 (12.25) mmHg, the “Nighttime Mean SBP (ABPM), Mean (SD)” value (12.5 mg BID, EoT, FAS) was 126.81 (16.69) mmHg and the “Subjects with nighttime dip 10-20% in 24-hour systolic ABPM” value (12.5 mg BID, EoT, FAS) was 5 (31.3) n (%). The “Subjects with nighttime dip <10% in 24-hour systolic ABPM” value (12.5 mg BID, EoT, FAS) was 11 (68.8) n (%), the “Subjects with nighttime dip >20% in 24-hour systolic ABPM” value (12.5 mg BID, EoT, FAS) was 0 n (%) and the “24-hr Mean DBP (ABPM) CFB to EoT, Mean (SD)” value (12.5 mg BID, FAS) was −5.38 (8.59) mmHg. The “24-hr Mean MAP (ABPM) CFB to EoT, Mean (SD)” value (12.5 mg BID, FAS) was −5.53 (10.63) mmHg, the “24-hr Mean SBP (ABPM) CFB to EoT, Mean (SD)” value (12.5 mg BID, FAS) was −5.69 (12.90) mmHg and the “Daytime Mean DBP (ABPM) CFB to EoT, Mean (SD)” value (12.5 mg BID, FAS) was −4.25 (9.64) mmHg. The “Daytime Mean SBP (ABPM) CFB to EoT, Mean (SD)” value (12.5 mg BID, FAS) was −4.06 (14.48) mmHg, the “Nighttime Mean DBP (ABPM) CFB to EoT, Mean (SD)” value (12.5 mg BID, FAS) was −6.00 (10.17) mmHg and the “Nighttime Mean SBP (ABPM) CFB to EoT, Mean (SD)” value (12.5 mg BID, FAS) was −7.50 (16.17) mmHg. The “LSM Δ with Placebo, 24-hr DBP (ABPM, ANCOVA)” value (12.5 mg QD) was −1.44 mmHg, the “LSM Δ with Placebo, 24-hr Mean MAP (ABPM, ANCOVA)” value (12.5 mg QD) was −1.62 mmHg and the “LSM Δ with Placebo, 24-hr SBP (ABPM, ANCOVA)” value (12.5 mg QD) was −1.5 mmHg. For the same compound, the “LSM Δ with Placebo, Daytime Mean DBP (ABPM, ANCOVA)” value (12.5 mg QD) was −2.47 mmHg, the “LSM Δ with Placebo, Daytime Mean SBP (ABPM, ANCOVA)” value (12.5 mg QD) was −2.14 mmHg and the “LSM Δ with Placebo, Mean Central DBP (ABPM, ANCOVA)” value (12.5 mg QD) was −1.29 mmHg. For the same compound, the “LSM Δ with Placebo, Mean Central Mean BP (ABPM, ANCOVA)” value (12.5 mg QD) was 0.06 mmHg, the “LSM Δ with Placebo, Mean Central SBP (ABPM, ANCOVA)” value (12.5 mg QD) was 1.92 mmHg and the “LSM Δ with Placebo, Nighttime Mean DBP (ABPM, ANCOVA)” value (12.5 mg QD) was −1.53 mmHg. For the same compound, the “LSM Δ with Placebo, Nighttime Mean SBP (ABPM, ANCOVA)” value (12.5 mg QD) was −0.21 mmHg, the “24-hr Mean DBP (ABPM), Mean (SD)” value (12.5 mg QD, EoT, FAS) was 79.93 (7.33) mmHg and the “24-hr Mean MAP (ABPM), Mean (SD)” value (12.5 mg QD, EoT, FAS) was 109.47 (10.81) mmHg. The “24-hr Mean SBP (ABPM), Mean (SD)” value (12.5 mg QD, EoT, FAS) was 139.00 (16.31) mmHg and the “Daytime Mean DBP (ABPM), Mean (SD)” value (12.5 mg QD, EoT, FAS) was 81.53 (6.79) mmHg.
